Data published in patent US11331327B2, “Antibacterial use of halogenated salicylanilides” (UNION therapeutics A/S, priority 2014, dated 2022).

System: Streptococcus pyogenes strains
Assay: MIC assay, Example 2, S. pyogenes strains (in BHI)
Assay type: cell-based
Protocol: Strains were conserved in Luria Bertani (LB) Broth (S. aureus) or Brain Heart Infusion (BHI) (S. pyogenes) supplemented with glycerol 15% (v/v) at −80° C., and reactivated by isolation on LB (S. aureus) or BHI (S. pyogenes) agar plates. Strains were cultivated in Mueller Hinton (MH) Broth-cation adjusted (S. aureus) or BHI (S. pyogenes). All strains were cultivated aerobically (microaerobically for S. pyogenes strains) at 37° C. […] Bacterial cultures were stopped in their exponential growth phase and plates were inoculated with the approximate concentration of 5×10^5 cells per well.

[1] = S. pyogenes strains with MIC 0.0625 μg/ml
[2] = S. pyogenes strains with MIC 0.5 μg/ml
[3] = S. pyogenes strains with MIC […]

O=C(Nc1ccc([N+](=O)[O-])cc1Cl)c1cc(Cl)ccc1O [Niclosamide, 5-chloro-N-(2-chloro-4-nitrophenyl)-2-hydroxybenz-amide]
MIC distribution (percentage of strains) [1]: 25%
MIC distribution (ratio of strains) [1]: (1/4)
MIC distribution (percentage of strains) [2]: 25%
MIC distribution (ratio of strains) [2]: (1/4)
MIC distribution (percentage of strains) [3]: 25%
MIC distribution (ratio of strains) [3]: (1/4)
MIC (Streptococcus pyogenes, all targeted S. pyogenes strains): ≤ 0.5 µg/mL
